Data reported in US12195490B2, “STRAD-binding agents and uses thereof” (The Regents of the University of California, priority 2020, dated 2025).

Experiments:
[1] = target: T1, LKB1 (Homo sapiens, UniProt Q15831+Q7RTN6); assay: LKB1 kinase assay with recombinant LKB1 (LKB1 in vitro activation); type: biochemical
T1 sequence (Q15831 1-433): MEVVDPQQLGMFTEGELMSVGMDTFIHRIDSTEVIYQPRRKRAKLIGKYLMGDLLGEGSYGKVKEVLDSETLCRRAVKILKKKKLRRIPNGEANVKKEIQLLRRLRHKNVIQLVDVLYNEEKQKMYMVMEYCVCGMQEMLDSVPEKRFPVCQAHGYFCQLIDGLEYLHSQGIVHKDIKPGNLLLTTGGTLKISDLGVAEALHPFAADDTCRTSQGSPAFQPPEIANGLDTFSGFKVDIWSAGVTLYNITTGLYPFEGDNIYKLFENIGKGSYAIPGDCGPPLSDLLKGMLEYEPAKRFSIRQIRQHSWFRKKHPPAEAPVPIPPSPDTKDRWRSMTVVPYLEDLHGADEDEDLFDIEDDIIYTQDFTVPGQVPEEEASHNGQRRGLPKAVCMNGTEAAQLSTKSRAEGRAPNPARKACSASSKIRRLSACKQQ
T1 sequence (Q7RTN6 1-431): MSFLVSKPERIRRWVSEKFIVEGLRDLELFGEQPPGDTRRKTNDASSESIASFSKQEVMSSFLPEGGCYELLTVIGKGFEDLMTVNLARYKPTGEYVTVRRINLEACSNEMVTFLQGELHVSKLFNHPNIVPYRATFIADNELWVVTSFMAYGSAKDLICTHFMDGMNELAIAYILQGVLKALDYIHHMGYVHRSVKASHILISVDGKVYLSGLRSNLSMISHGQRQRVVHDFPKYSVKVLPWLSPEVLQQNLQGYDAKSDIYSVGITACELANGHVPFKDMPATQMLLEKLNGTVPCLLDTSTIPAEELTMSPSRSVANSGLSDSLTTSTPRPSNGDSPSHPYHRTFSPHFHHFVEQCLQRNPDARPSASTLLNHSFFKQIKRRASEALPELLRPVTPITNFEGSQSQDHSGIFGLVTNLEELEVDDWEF
T1 sequence (Q9Y376 1-341 partner): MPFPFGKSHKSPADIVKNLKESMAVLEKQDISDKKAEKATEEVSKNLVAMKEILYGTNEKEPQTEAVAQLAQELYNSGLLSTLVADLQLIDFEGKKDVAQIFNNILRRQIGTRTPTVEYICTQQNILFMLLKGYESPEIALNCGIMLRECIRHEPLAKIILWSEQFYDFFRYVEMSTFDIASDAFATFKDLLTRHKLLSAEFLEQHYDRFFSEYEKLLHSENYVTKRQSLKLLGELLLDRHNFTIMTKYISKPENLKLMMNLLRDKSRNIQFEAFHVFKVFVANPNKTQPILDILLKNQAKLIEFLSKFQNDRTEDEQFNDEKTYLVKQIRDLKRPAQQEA
Description: Screening in human cancer cell lines has identified cell lines responsive to LKB1 activation and predictive biomarkers for compound development have been determined. Installation of a novel polar functionality specifically designed to target STRAD's unique phosphate-binding residues led to the identification of compound SU-329 which is currently progressing through efficacy models evaluating tumor growth inhibition. The terms SU-329 and SU20668-0329-01 refer to the same compound.
Small Molecule Activation of the LKB1 Tumor Suppressor. Cancer treatment has been considerably advanced by the relatively recent development of small molecules capable of inhibiting oncogenic kinase signaling, but exogenous enhancement of tumor suppressive signaling remains elusive. Here, we sought to design small molecules capable of activating the tumor suppressor kinase LKB1. Designing compounds capable of increasing kinase activity has been more structurally challenging than those aimed at inhibiting them: apart from the ATP-binding pocket, there is rarely a site that would be conducive to binding a small molecule. Unlike most protein kinases, LKB1 signals as part of an obligate trimer consisting of itself, a scaffolding protein (MO25), and a pseudokinase (STRAD). As part of its mechanism of activation, LKB1 must bind to an ATP-bound STRAD to take on its active kinase conformation. […]

[2] = tested on: ACHN cell line; assay: Drug screen of the SelleckChem kinase inhibitor library with and without SU-329, Cell-Titer Glo after 5 days; type: cell-based; details: kinase inhibitors 200 nM with and without 5 μM SU-329
Method: FIG. 8. Drug screen identifies signaling pathways that affect the impact of LKB1 activation. Drug screen of the SelleckChem kinase inhibitor library was performed in the ACHN cell line. Sensitivity to kinase inhibitors used at 200 nM with and without 5 μM of SU-329 was measured after 5 days with Cell-Titer Glo. […] The terms SU-329 and SU20668-0329-01 refer to the same compound.

With `COP(=O)(CS(=O)(=O)c1ccc(NC(=O)c2nc(-c3ccc(C)cc3)cnc2N)cc1)OC` [SU-329] the “LKB1 in vitro activation” value [1] was “Single digit micro-molar”, the “response of LKB1 stimulation under inhibition of GSK-3” value [2] was “reduced the response of LKB1 stimulation” and the “response of LKB1 stimulation under inhibition of mTOR and components of the PI3K” value [2] was “attenuated the response of LKB1 stimulation”.
